The test system of assay [1] is MCF7. As to the kind of experiment: Antiproliferative activity against human MCF7 cells after 3 days by sulforhodamine-B colorimetric assay. The format is functional, cell-based. Particulars: MCF7, 72 h. (In general: In SRB staining, fixed cells bind dye roughly in proportion to their protein.)
The test system of assay [2] is HCT-116. As to the kind of experiment: Antiproliferative activity against human HCT116 cells after 3 days by sulforhodamine-B colorimetric assay. Particulars: HCT-116, 72 h. The format is functional, cell-based.
In assay [3] the test system is A-375. As to the kind of experiment: Antiproliferative activity against human A375 cells after 3 days by sulforhodamine-B colorimetric assay. Conditions: A-375, 72 h. Format: functional, cell-based.
The nature of assay [4]: Antiproliferative activity against human G361 cells after 3 days by sulforhodamine-B colorimetric assay. The format is functional, cell-based. Particulars: G-361, 72 h.
For assay [5], the system named is MCF7. Description: Cell cycle arrest human MCF7 cells assessed as accumulation at G0/G1 phase at IC50 after 24 hrs by flow cytometry (reference value: 34.58 +/- 0.09 % ). Format: functional.
Assay [6] relates to MCF7. Description: Cell cycle arrest human MCF7 cells assessed as accumulation at S phase at IC50 after 24 hrs by flow cytometry (reference value: 14.50 +/- 1.06 % ). Format: functional.
Assay [7] deals with MCF7. As to the kind of experiment: Cell cycle arrest human MCF7 cells assessed as accumulation at G2/M phase at IC50 after 24 hrs by flow cytometry (reference value: 50.91 +/- 1.15 % ). Format: functional.
Assay [8] relates to HCT-116. As to the kind of experiment: Cell cycle arrest human HCT116 cells assessed as accumulation at G0/G1 phase at IC50 after 24 hrs by flow cytometry (reference value: 44.70 +/- 0.38 % ). The format is functional. (Flow cytometry measures light scatter and fluorescence of single cells or particles in a stream.)
In assay [9] the test system is HCT-116. Description: Cell cycle arrest human HCT116 cells assessed as accumulation at S phase at IC50 after 24 hrs by flow cytometry (reference value: 38.26 +/- 1.40 % ). The format is functional.
Assay [10] concerns HCT-116. Description: Cell cycle arrest human HCT116 cells assessed as accumulation at G2/M phase at IC50 after 24 hrs by flow cytometry (reference value: 17.02 +/- 1.40 % ). The format is functional.
Assay [11] deals with A-375. Description: Cell cycle arrest human A375 cells assessed as accumulation at G0/G1 phase at IC50 after 24 hrs by flow cytometry (reference value: 57.97 +/- 0.93 % ). The format is functional.
The test system of assay [12] is A-375. As to the kind of experiment: Cell cycle arrest human A375 cells assessed as accumulation at S phase at IC50 after 24 hrs by flow cytometry (reference value: 29.60 +/- 0.78 % ). The format is functional.
The test system of assay [13] is A-375. As to the kind of experiment: Cell cycle arrest human A375 cells assessed as accumulation at G2/M phase at IC50 after 24 hrs by flow cytometry (reference value: 12.42 +/- 0.70 % ). Format: functional.
Assay [14] deals with MCF7. As to the kind of experiment: Induction of apoptosis in human MCF7 cells at IC50 after 24 hrs by annexin V-FITC/PI-based flow cytometry (reference value: 10.80 +/- 0.85 % ). The format is functional.
Assay [15] has as its system HCT-116. As to the kind of experiment: Induction of apoptosis in human HCT116 cells at IC50 after 24 hrs by annexin V-FITC/PI-based flow cytometry (reference value: 7.27 +/- 1.57 % ). Format: functional.
Assay [16] deals with A-375. Description: Induction of apoptosis in human A375 cells at IC50 after 24 hrs by annexin V-FITC/PI-based flow cytometry (reference value: 6.83 +/- 0.40 % ). The format is functional.

We go through eight compounds from ChEMBL document CHEMBL3232840, “Anti-proliferative activity of 2,6-dichloro-9- or 7-(ethoxycarbonylmethyl)-9H- or 7H-purines against several human solid tumour cell lines” (Eur J Med Chem, 2014).

What is called pIC50 is the negative decadic logarithm of the IC50, by convention in mol/L. Low readings indicate a high IC50, high ones a low IC50.

pIC50: −log10 of the molar value.

Consider `CCOC(=O)Cn1cc(F)c(=O)[nH]c1=O`, for which the pIC50 in the assay with MCF7 [1] was 4.60; in the assay with HCT-116 [2], 4.61; in the assay on A-375 [3], 4.42; in [4], 4.54.

With `CCOC(=O)Cn1c(=O)[nH]cc(F)c1=O`, the pIC50 is 4.52 in the assay with MCF7 [1], 4.65 in the assay with HCT-116 [2], 4.29 in the assay with A-375 [3] and 4.60 in assay [4].

Turning to `CCOC(=O)Cn1cnc2c(Cl)ncnc21`, the pIC50 in the assay on MCF7 [1] was 4.45; with HCT-116 [2], 5.28; with A-375 [3], 4.72; in assay [4] it was 4.67.

Consider `CCOC(=O)Cn1cnc2ncnc(Cl)c21`, for which the pIC50 was 4.30 in the assay with MCF7 [1], 4.17 in the assay with HCT-116 [2], 4.84 in the assay with A-375 [3] and 4.67 in assay [4].

For the compound `CCOC(=O)Cn1cnc2c(Br)ncnc21`, the pIC50 in the assay with MCF7 [1] is 4.85; with HCT-116 [2] it was 4.63; with A-375 [3], 4.87; in assay [4] it was 4.80.

As to `CCOC(=O)Cn1cnc2ncnc(Br)c21`, the pIC50 in the assay with MCF7 [1] is 4.69; in the assay on HCT-116 [2], 4.25; with A-375 [3], 4.57; in assay [4], 4.74.

With `CCOC(=O)Cn1cnc2c(Cl)nc(Cl)nc21`, the negative logarithm of the IC50 (pIC50) in the assay on MCF7 [1] is 5.41; in the assay with HCT-116 [2], 5.21; with A-375 [3], 5.93; in assay [4], 5.51. The Activity in the assay on MCF7 [5] stood at 28.17%; in the assay on MCF7 [6], 15.39%; in the assay with MCF7 [7], 54.63%; in the assay on HCT-116 [8], 45.93%; with HCT-116 [9], 36.75%; with HCT-116 [10], 17.31%. Also, the Activity in the assay with A-375 [11] was determined as 58.48%; with A-375 [12] it was 28.78%; in the assay with A-375 [13], 12.73%; with MCF7 [14], 20.53%; in the assay on HCT-116 [15] it was 20.2%; in the assay on A-375 [16] it was 35.37%.

In the case of `CCOC(=O)Cn1cnc2nc(Cl)nc(Cl)c21`, the pIC50 with MCF7 [1] was 5.25; with HCT-116 [2], 5.20; in the assay on A-375 [3], 5.30; in assay [4], 5.25. In addition, the Activity in the assay on MCF7 [5] came out at 34.54%; in the assay with MCF7 [6] it was 18.27%; in the assay with MCF7 [7] it was 47.19%; in the assay with HCT-116 [8], 33.58%; in the assay on HCT-116 [9], 37.93%; in the assay with HCT-116 [10] it was 28.47%. Moreover, the Activity in the assay with A-375 [11] is 70.55%; in the assay on A-375 [12] it was 20.1%; with A-375 [13], 9.34%; in the assay with MCF7 [14], 24.1%; in the assay with HCT-116 [15] it was 17.03%; in the assay on A-375 [16], 27.13%.
